Earlier results in US10064816B2, “Treatment of sexual dysfunction” (ReJoy, priority 2015, dated 2018).

Test system: arrector pili muscle
Conditions: 1% w/v, iontophoresis

In the case of CNC[C@H](O)c1cccc(O)c1 [phenylephrine], the “piloerection on the forearm” value is given as “can activate the piloerection”.
